This assay has as its target Arabidopsis thaliana SHMT. As to the kind of experiment: SHMT activity assay (ED50 SHMT), coupled with N5,N10-CH2-THF dehydrogenase, NADH at 340 nm. Type of assay: biochemical. The procedure: Determination of the ED50 SHMT was carried out as described hereinunder.
Purification of Arabidopsis thaliana SHMT
The following buffers were used during the purification protocol:
Buffer A (Lysis and Wash Buffer): • 20 mM Na-Phosphat (pH 7,4) • 500 mM NaCI • 40 mM Imidazole • 1.0 mM L-Serine • 0.5 mM Pyridoxal-5-phosphate • 0.5 mM DTT
Buffer B (Elution Buffer): • 20 mM Na-Phosphat (pH 7,4) • 500 mM NaCl • 250 mM Imidazole • 1.0 mM L-Serine • 0.5 mM Pyridoxal-5-phosphate • 0.5 mM DTT
All procedures were conducted at 4° C. or on ice. Pellets were suspended in Buffer A containing 1 mg/ml DNAse +Complete EDTA-free protease inhibitor tablet. Cells were lysed using sonication or a French Press device, using standard settings. Lysis was centrifuged at 40000×g for 25 minutes. The supernatant was filtered (0.22 μM) before loading onto a Ni-NTA column.
A gravity flow column containing Ni-NTA resin was equilibrated with 10 CV Buffer A and loaded with filtered cell lysate. The column was then washed with 10 CV Buffer A. Elution was afforded using Buffer B and collected manually as mini-factions. EDTA was added after elution to a final concentration of 1 mM. Fractions were pooled on the basis of the correct band for SHMT visualised via SDS-PAGE and staining.
SHMT Assay Buffer: • 50 mM KH2PO4 (pH 7,4) • 2.0 mM NAD+ • 7.5 mM DTT • 0.3 mM Tetrahydrofolic acid • 4% DMSO
Reaction Start: 20 mM L-Serine
The rate of N5,N10-CH2-THF formation catalyzed by SHMT was monitored at 340 nm by coupling with excess N5,N10-CH2-THF dehydrogenase, which converts NAD+to NADH. Reactions were initiated by adding 20 mM L-Serine. Inhibition of initial velocity was determined by adding various inhibitors of the SHMT reaction and monitored as described. Reactions were measured in a Bio Tek micro titer plate reader following the change in absorption with the formation of NADH for 30 mimnutes.

[1] abbreviates: Table 2, values given as upper bounds.
The mark [2] stands for this setting: Table 2, Arabidopsis thaliana SHMT enzyme assay, values given as upper bounds.
Setting [3] is: Arabidopsis thaliana SHMT enzyme assay, values given as upper bounds.
Where [4] appears, read: inhibition of initial velocity of Arabidopsis thaliana SHMT.

Regarding `Cc1n[nH]c2c1C(c1cc(C#N)cc(-c3ccc(C(=O)O)c(F)c3)c1)(C1CCC1)C(C#N)=C(N)O2` (stereo not drawn) [Compound 2.560], the EC50 (in general, the concentration at which the effect is half-maximal) under setting [1] was less than 10 nM. The compound `CCC1(c2ccc(Br)c(Cl)c2)C(C#N)=C(N)Oc2[nH]nc(C)c21` (stereo not drawn) [Compound 2.472] registered a concentration giving a half-maximal response (EC50) under setting [1] of less than 100 nM. `N#CC1=C(N)Oc2[nH]ncc2C1(c1ccc(Cl)c(OC(F)(F)F)c1)C1CCC1` (stereo not drawn) [Compound 2.290]: under setting [2], the EC50 is less than 100 nM. For the compound `Cc1n[nH]c2c1C(c1cc(Cl)cc(-c3ccc(-c4nnn[nH]4)cc3)c1)(C1CCC1)C(C#N)=C(N)O2` (stereo not drawn) [Compound 2.493], the EC50 under setting [1] is less than 10 nM. `Cc1n[nH]c2c1C(c1cc(C#N)cc(NS(=O)(=O)C(F)(F)F)c1)(C1CCC1)C(C#N)=C(N)O2` (stereo not drawn) [Compound 2.733]: the half-maximal effective concentration (EC50) under setting [3] was less than 100 nM.

`CCC(=O)Nc1ccc(C2(CC)C(C#N)=C(N)Oc3[nH]nc(C)c32)cc1` (stereo not drawn) [Compound 2.81.] registered a concentration for a half-maximal effect (EC50) under setting [1] of less than 1000 nM. Under setting [3], `Cc1n[nH]c2c1C(c1cc(Cl)cc(N(C)C(=O)CCCc3nnn[nH]3)c1)(C1CCC1)C(C#N)=C(N)O2` (stereo not drawn) [Compound 2.701] yielded an EC50 of less than 100 nM. With `Cc1n[nH]c2c1C(c1cc(Cl)cc(C#N)c1)(C1CC1)C(C#N)=C(N)O2` (stereo not drawn) [Compound 2.359], the EC50 under setting [2] is less than 10 nM. Consider `Cc1n[nH]c2c1C(c1cc(Cl)cc(-c3ccc(NS(=O)(=O)C(F)(F)F)cc3)c1)(C1CCC1)C(C#N)=C(N)O2` (stereo not drawn) [Compound 2.595], for which, under setting [1], the EC50 is less than 10 nM.

Under setting [1], `Cc1n[nH]c2c1C(c1ccc(CCc3nnn[nH]3)c(Cl)c1)(C1CCC1)C(C#N)=C(N)O2` (stereo not drawn) [Compound 2.637] registered an EC50 of less than 10 nM.

Take `Cc1n[nH]c2c1C(c1cccc(Cl)c1)(C(C)C)C(C#N)=C(N)O2` (stereo not drawn) [Compound 2.122.]: the 50% effective concentration (EC50) under setting [1] is less than 100 nM. Still for that read-out and setting: as for `Cc1n[nH]c2c1C(c1cc(CNC(=O)CCC(=O)O)cc(C(F)(F)F)c1)(C1CCC1)C(C#N)=C(N)O2` (stereo not drawn) [Compound 2.649], the figure is less than 10 nM; as for `CCCC1(c2cc(Br)cc(C#N)c2)C(C#N)=C(N)Oc2[nH]nc(CC)c21` (stereo not drawn) [Compound 2.578], less than 100 nM. `Cc1n[nH]c2c1C(c1cc(Cl)cc(C(=O)O)c1)(C1CCC1)C(C#N)=C(N)O2` (stereo not drawn) [Compound 2.382] gave an EC50 under setting [2] of less than 100 nM.

For the compound `COc1ccc(C2(C(C)C)C(C#N)=C(N)Oc3[nH]nc(C)c32)cc1Br` (stereo not drawn) [Compound 2.222], the EC50 under setting [2] is less than 10 nM.

In the case of `Cc1n[nH]c2c1C(c1cc(C#N)cc(N(C)Cc3ccccc3)c1)(C1CCC1)C(C#N)=C(N)O2` (stereo not drawn) [Compound 2.660], the EC50 under setting [3] was less than 10 nM. Compound `Cc1n[nH]c2c1C(c1cc(C(F)(F)F)cc(C(F)(F)F)c1)(C1CC(O)C1)C(C#N)=C(N)O2` (racemic) [Compound 2.540] returned an EC50 under setting [1] of less than 100 nM. Under setting [1], `Cc1n[nH]c2c1C(c1cccc(C#N)c1)(C1CCC1)C(C#N)=C(N)O2` (stereo not drawn) [Compound 2.192.] yielded a concentration giving a half-maximal response (EC50) of less than 100 nM. As to `N#CC1=C(N)Oc2[nH]ncc2C1(c1cc(C#N)cc(C(=O)OCc2ccccc2)c1)C1CCC1` (stereo not drawn) [Compound 2.369], under setting [2], the EC50 was less than 10 nM. In turn, `COC(=O)c1cc(F)cc(-c2cc(C#N)cc(C3(C4CCC4)C(C#N)=C(N)Oc4[nH]nc(C)c43)c2)c1` (stereo not drawn) [Compound 2.513] registered an EC50 under setting [1] of less than 10 nM. Still for that read-out and setting: as for `Cc1n[nH]c2c1C(c1cc(Cl)cc(-c3ccc(C(=O)O)cc3)c1)(C1CCC1)C(C#N)=C(N)O2` (stereo not drawn) [Compound 2.483], the figure is less than 10 nM. As for `Cc1n[nH]c2c1C(c1cc3cc(C(F)(F)F)ccc3s1)(C1CCC1)C(C#N)=C(N)O2` (stereo not drawn) [Compound 4.22], the EC50 under setting [4] was less than 10 nM.

For `COc1ccc(C2(C(C)C)C(C#N)=C(N)Oc3[nH]nc(C)c32)cc1C(F)(F)F` (stereo not drawn) [Compound 2.144.], the EC50 under setting [1] was less than 10 nM. For `Cc1n[nH]c2c1C(c1cc(Cl)cc(C#N)c1)(C1CC=CC1)C(C#N)=C(N)O2` (stereo not drawn) [Compound 2.368], the EC50 under setting [2] was less than 10 nM. The compound `CCC1(c2cccc(-c3ccccc3)c2)C(C#N)=C(N)Oc2[nH]nc(C)c21` (stereo not drawn) [Compound 2.35.] came in with an EC50 under setting [1] of less than 1000 nM. Still for that read-out and setting: in the case of `CCCC1(c2cc(C#N)cc(C(F)(F)F)c2)C(C#N)=C(N)Oc2[nH]nc(C)c21` (stereo not drawn) [Compound 2.531] it was less than 10 nM. On the same count and under the same terms, in the case of `CCC1(c2cccc(C)c2)C(C#N)=C(N)Oc2[nH]nc(C)c21` (racemic) [Compound 2.42.] it was less than 10000 nM. The same measure, in the same setting: as for `N#CC1=C(N)Oc2[nH]nc(C3CC3)c2C1(c1cccc(Cl)c1)C1CCC1` (stereo not drawn) [Compound 2.174.], the figure is less than 100 nM; as for `CCC1(c2ccc(F)c(Br)c2)C(C#N)=C(N)Oc2[nH]nc(C)c21` (racemic) [Compound 2.13.], less than 100 nM.

Under setting [2], `N#CC1=C(N)Oc2[nH]ncc2C1(c1ccc(C(F)(F)F)c(C(F)(F)F)c1)C1CCC1` (stereo not drawn) [Compound 2.302] had an EC50 of less than 10 nM. Same read-out and setting: in the case of `COc1ccc(C2(C3CCCC3)C(C#N)=C(N)Oc3[nH]ncc32)cc1Cl` (stereo not drawn) [Compound 2.254] it was less than 10000 nM.

Compound `CCC1(c2cccc(Cl)c2)C(C#N)=C(N)Oc2[nH]nc(CCC(F)F)c21` (stereo not drawn) [Compound 2.105.] came in with a concentration giving a half-maximal response (EC50) under setting [1] of less than 10000 nM.

The compound `Cc1n[nH]c2c1C(c1cc(C#N)cc(-c3cc(C(=O)O)cs3)c1)(C(C)C)C(C#N)=C(N)O2` (stereo not drawn) [Compound 2.686] showed a 50% effective concentration (EC50) under setting [3] of less than 100 nM. Under setting [2], `Cc1n[nH]c2c1C(c1cc(Cl)cc(-c3cccs3)c1)(C1CCC1)C(C#N)=C(N)O2` (stereo not drawn) [Compound 2.263] displayed an EC50 of less than 10 nM. On to `COc1ccc(C2(C(C)C)C(C#N)=C(N)Oc3[nH]nc(C)c32)cc1Cl` (stereo not drawn) [Compound 2.124.], for which the EC50 under setting [1] was less than 10 nM. The same measure, in the same setting: in the case of `CCCC1(c2cc(Cl)cc(C#N)c2)C(C#N)=C(N)Oc2[nH]nc(OC)c21` (stereo not drawn) [Compound 2.602] it was less than 10000 nM. Regarding `Cc1n[nH]c2c1C(c1cc(C#N)cc(C(=O)OCc3ccccc3)c1)(C1CCC1)C(C#N)=C(N)O2` (stereo not drawn) [Compound 2.370], the EC50 under setting [2] was less than 10 nM. Still for that read-out and setting: as for `N#CC1=C(N)Oc2[nH]ncc2C1(c1cc(Br)cc(C(F)(F)F)c1)C1CCC1` (stereo not drawn) [Compound 2.259], the figure is less than 10 nM. In turn, `COC(=O)CCc1cccc(-c2cc(C#N)cc(C3(C4CCC4)C(C#N)=C(N)Oc4[nH]nc(C)c43)c2)c1` (stereo not drawn) [Compound 2.525] showed an EC50 under setting [1] of less than 10 nM. Still for that read-out and setting: as for `Cc1n[nH]c2c1C(c1cc(Cl)cc(Cc3nnn[nH]3)c1)(C1CCC1)C(C#N)=C(N)O2` (stereo not drawn) [Compound 2.570], the figure is less than 10 nM; as for `CCCCC(=O)N(C)c1cc(C#N)cc(C2(C3CCC3)C(C#N)=C(N)Oc3[nH]nc(C)c32)c1` (stereo not drawn) [Compound 2.614], less than 10 nM; as for `CCC1(c2cc(Br)cc(C#N)c2)C(C#N)=C(N)Oc2[nH]nc(C)c21` (stereo not drawn) [Compound 2.532], less than 10 nM.

`COc1ccc(C2(C3CCC3)C(C#N)=C(N)Oc3[nH]nc(C)c32)cc1C#N` (stereo not drawn) [Compound 2.464]: the EC50 under setting [1] is less than 10 nM. As to `Cc1n[nH]c2c1C(c1cc(C#N)cc(C(F)(F)F)c1)(C(C)C)C(C#N)=C(N)O2` (stereo not drawn) [Compound 2.338], the EC50 under setting [2] was less than 10 nM.

The compound `Cc1n[nH]c2c1C(c1cc(Cl)cc(N(C)C(=O)CCCC#N)c1)(C1CCC1)C(C#N)=C(N)O2` (stereo not drawn) [Compound 2.700] gave an EC50 under setting [3] of less than 100 nM. For `COc1c(Br)cc(C2(C3CCC3)C(C#N)=C(N)Oc3[nH]nc(C)c32)cc1C#N` (stereo not drawn) [Compound 2.492], the half-maximal effective concentration (EC50) under setting [1] was less than 10 nM.

Under setting [3], `Cc1n[nH]c2c1C(c1cc(C#N)cc(N(C)Cc3nnn[nH]3)c1)(C1CCC1)C(C#N)=C(N)O2` (stereo not drawn) [Compound 2.691] showed an EC50 of less than 100 nM.

As for `Cc1n[nH]c2c1C(c1ccc(-c3cccc(F)c3)s1)(C1CCC1)C(C#N)=C(N)O2` (stereo not drawn) [Compound 4.14], the half-maximal effective concentration (EC50) under setting [4] was less than 10 nM.

Values taken from US9480259B2, “Pyrazolopyrans having herbicidal and pharmaceutical properties” (BASF SE, priority 2012, dated 2016).
